# Measured values as given in patent US12077483B2, “Modified amine lipids” (Intellia Therapeutics, Inc., priority 2018, dated 2024).
# Assays:
# [1] = pKa of amine lipid by TNS fluorescence; assay type: physicochemical; details: probe TNS (6-(p-toluidino)-2-naphthalenesulfonic acid sodium salt), unformulated amine lipid in ethanol, sodium phosphate buffers -9.0
# Procedure, shortened: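 pKa derived from a sigmoidal fit of normalized TNS fluorescence (321 nm excitation, 448 nm emission) versus pH. Lipid from ethanol stock diluted to about 100 μM final in 0.1 M phosphate buffers, pH 4.5–9.0.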
# [2] = test system: mouse TTR; assay: Serum TTR ELISA in mice after LNP delivery; assay type: in vivo; details: mouse serum, relative to TSS control of same experiment
# Procedure, shortened: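 Mouse TTR in serum was quantified by ELISA (samples diluted e.g. 10,000- and/or 2,500-fold) 6–7 days after dosing CD-1 females with LNP, typically 0.1 mpk. Values are reported relative to vehicle-treated controls (%).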
# [3] = LNP average particle size and polydispersity by dynamic light scattering; assay type: physicochemical; details: LNP with the compound as amine lipid
# Excerpt: The LNPs have a size of about 1 to about 1,000 nm, about 10 to about 500 nm, about 20 to about 500 nm, in a sub-embodiment about 50 to about 400 nm, in a sub-embodiment about 50 to about 300 nm, in a sub-embodiment about 50 to about 200 nm, and in a sub-embodiment about 50 to about 150 nm, and in another sub-embodiment about 60 to about 120 nm. Preferably, the LNPs have a size from about 60 nm to about 100 nm. The average sizes (diameters) of the fully formed LNP, may be measured by dynamic light scattering on a Malvern Zetasizer. The LNP sample is diluted in phosphate buffered saline (PBS) so that the count rate is approximately 200-400 kcps. The data is presented as a weighted average of the intensity measure.
# In some embodiments, the LNPs have a size of about 75 to about 120 nm. In some embodiments, the LNPs have a size of about 75 to about 100 nm. Unless indicated otherwise, all sizes referred to herein are the average sizes (diameters) of the fully formed nanoparticles, as measured by dynamic light scattering on a Malvern Zetasizer. The nanoparticle sample is diluted in phosphate buffered saline (PBS) so that the count rate is approximately 200-400 kcps. The data is presented as a weighted-average of the intensity measure (Z-average diameter).
# Dynamic Light Scattering (“DLS”) is used to characterize the polydispersity index (“pdi”) and size of the LNPs of the present disclosure. DLS measures the scattering of light that results from subjecting a sample to a light source. PDI, as determined from DLS measurements, represents the distribution of particle size (around the mean particle size) in a population, with a perfectly uniform population having a PDI of zero. Electropheretic light scattering is used to characterize the surface charge of the LNP at a specified pH. The surface charge, or the zeta potential, is a measure of the magnitude of electrostatic repulsion/attraction between particles in the LNP suspension. Asymmetric-Flow Field Flow Fractionation—Multi-Angle Light Scattering (AF4-MALS) is used to separate particles in the composition by hydrodynamic radius and then measure the molecular weights, hydrodynamic radii and root mean square radii of the fractionated particles. […] Nanoparticle tracking analysis (NTA, Malvern Nanosight) can be used to determine particle size distribution as well as particle concentration. LNP samples are diluted appropriately and injected onto a microscope slide. A camera records the scattered light as the particles are slowly infused through field of view. After the movie is captured, the Nanoparticle Tracking Analysis processes the movie by tracking pixels and calculating a diffusion coefficient. This diffusion coefficient can be translated into the hydrodynamic radius of the particle. The instrument also counts the number of individual particles counted in the analysis to give particle concentration.
# LNP compositions are analyzed for average particle size, polydispersity index (pdi), total RNA content, encapsulation efficiency of RNA, and zeta potential. LNP compositions may be further characterized by lipid analysis, AF4-MALS, NTA, and/or cryo-EM. Average particle size and polydispersity are measured by dynamic light scattering (DLS) using a Malvern Zetasizer DLS instrument. LNP samples were diluted with PBS buffer prior to being measured by DLS. Z-average diameter which is an intensity-based measurement of average particle size was reported along with number average diameter and pdi. A Malvern Zetasizer instrument is also used to measure the zeta potential of the LNP. Samples are diluted 1:17 (50 μL into 800 μL) in 0.1×PBS, pH 7.4 prior to measurement.
# [4] = RNA encapsulation efficiency of LNP (Ribogreen fluorescence assay); assay type: physicochemical; details: LNP with the compound as amine lipid
# Method: A fluorescence-based assay (Ribogreen®, ThermoFisher Scientific) is used to determine total RNA concentration and free RNA. Encapsulation efficiency is calculated as (Total RNA—Free RNA)/Total RNA. LNP samples are diluted appropriately with 1× TE buffer containing 0.2% Triton-X 100 to determine total RNA or 1× TE buffer to determine free RNA. Standard curves are prepared by utilizing the starting RNA solution used to make the compositions and diluted in 1× TE buffer+/−0.2% Triton-X 100. Diluted RiboGreen® dye (according to the manufacturer's instructions) is then added to each of the standards and samples and allowed to incubate for approximately 10 minutes at room temperature, in the absence of light. A SpectraMax M5 Microplate Reader (Molecular Devices) is used to read the samples with excitation, auto cutoff and emission wavelengths set to 488 nm, 515 nm, and 525 nm respectively. Total RNA and free RNA are determined from the appropriate standard curves.
# Encapsulation efficiency is calculated as (Total RNA−Free RNA)/Total RNA. The same procedure may be used for determining the encapsulation efficiency of a DNA-based cargo component. For single-strand DNA, Oligreen Dye may be used and for double-strand DNA, Picogreen Dye.
# [5] = Expt. 5, composition ratio (mol %) 50/10/38.5/1.5
# [6] = Expt. 9, composition ratio (mol %) 50/9/38/3 for Cmpnd 49, 50/10/38.5/1.5 for the others
# [7] = Expt. 8, composition ratio (mol %) 50/9/38/3 for Cmpnd 49, 50/10/38.5/1.5 for the others
# [8] = Expt. 1, composition ratio (mol %) 50/9/38/3 for Cmpnd 49, 50/10/38.5/1.5 for the others
# [9] = Expt. 7, composition ratio (mol %) 50/9/38/3 for Cmpnd 49, 50/10/38.5/1.5 for the others
# [10] = Expt. 10, composition ratio (mol %) 50/9/38/3 for Cmpnd 49, 50/10/38.5/1.5 for the others
pKa [1],"Num Ave Size (nm) [3, 8] [nm]","PDI [3, 8]","Z-Ave Size (nm) [3, 8] [nm]","Encapsulation (%) [4, 8] [%]",SMILES,Serum TTR % TSS ([2]; dose 0.03 mpk) [% TSS],Serum TTR % TSS ([2]; dose 0.1 mpk) [% TSS],other results
4.96,–,–,–,–,"CCCCC/C=C\C/C=C\CCCCCCCC(=O)OCC(COC(=O)CCCCCCC/C=C\C/C=C\CCCCC)OC(=O)CCC(CCCCCC)OC(=O)NC(C)(C)CN1CCCC1 (stereo not shown) [Compound 79, 2-((4-(((2-methyl-1-(pyrrolidin-1-yl)propan-2-yl)carbamoyl)oxy)decanoyl)oxy)propane-1,3-diyl (9Z,9′Z,12Z,12′Z)-bis(octadeca-9,12-dienoate)]",86.9,100.4,"Num Ave Size (nm) [3, 5]: 55 nm; PDI [3, 5]: 0.09; Z-Ave Size (nm) [3, 5]: 75.00 nm; Encapsulation (%) [4, 5]: 98%"
6.6,–,–,–,–,"CCCCC/C=C\C/C=C\CCCCCCCC(=O)OCC(COC(=O)CCCCCCC/C=C\C/C=C\CCCCC)COC(=O)C(C)(C)C(CCCCCC)OC(=O)NCCN1CCCC1 (stereo not shown) [Compound 100, 2-(((2,2-dimethyl-3-(((2-(pyrrolidin-1-yl)ethyl)carbamoyl)oxy)nonanoyl)oxy)methyl)propane-1,3-diyl (9Z,9′Z,12Z,12′Z)-bis(octadeca-9,12-dienoate)]",46.68,–,"Num Ave Size (nm) [3, 6]: 83 nm; PDI [3, 6]: 0.05; Z-Ave Size (nm) [3, 6]: 102 nm; Encapsulation (%) [4, 6]: 99%"
6.44,–,–,–,–,"CCCCC/C=C\C/C=C\CCCCCCCC(=O)OCC(COC(=O)CCCCCCC/C=C\C/C=C\CCCCC)OC(=O)CCC(CCCCCCC)OC(=O)NCC1CCCN1C (stereo not shown) [Compound 74, 2-((4-((((1-methylpyrrolidin-2-yl)methyl)carbamoyl)oxy)undecanoyl)oxy)propane-1,3-diyl (9Z,9′Z,12Z,12′Z)-bis(octadeca-9,12-dienoate)]",100.54,110.06,"Num Ave Size (nm) [3, 7]: 74.58 nm; PDI [3, 7]: 0.024; Z-Ave Size (nm) [3, 7]: 92.14 nm; Encapsulation (%) [4, 7]: 99%"
6.29,79.7,0.06,102.00,97,"CCCCCCCCCCCOC(=O)CCCCCCCC(=O)OCC(COC(=O)CCCCCCCC(=O)OCCCCCCCCCCC)OC(=O)CCCC(CCCCCCCC)OC(=O)NCCN(C)CC (stereo not shown) [Compound 61, O′1,O1-(2-((5-(((2-(ethyl(methyl)amino)ethyl)carbamoyl)oxy)tridecanoyl)oxy)propane-1,3-diyl) 9,9′-diundecyl di(nonanedioate)]",–,81.48,–
6.28,–,–,–,–,"CCCCC/C=C\C/C=C\CCCCCCCC(=O)OCC(COC(=O)CCCCCCC/C=C\C/C=C\CCCCC)OC(=O)CCC(CCCCC)OC(=O)OCCCN1CCCC1 (stereo not shown) [Compound 71, 2-((4-(((3-(pyrrolidin-1-yl)propoxy)carbonyl)oxy)nonanoyl)oxy)propane-1,3-diyl (9Z,9′Z,12Z,12′Z)-bis(octadeca-9,12-dienoate)]",47.425,15.055,"Num Ave Size (nm) [3, 9]: 86.63 nm; PDI [3, 9]: 0.035; Z-Ave Size (nm) [3, 9]: 104.5 nm; Encapsulation (%) [4, 9]: 97%"
6.18,83.73,0.02,100.40,98,"CCCCCCCCCCOC(=O)CCCCCCCC(=O)OCC(COC(=O)CCCCCCCC(=O)OCCCCCCCCCC)OC(=O)CCC(CCCCCCCC)OC(=O)NCCN(C)CC (stereo not shown) [Compound 57, 9,9′-didecyl O′1,O1-(2-((4-(((2-(ethyl(methyl)amino)ethyl)carbamoyl)oxy)dodecanoyl)oxy)propane-1,3-diyl) di(nonanedioate)]",–,24.58,–
6.48,–,–,–,–,"CCCCC/C=C\C/C=C\CCCCCCCC(=O)OCC(COC(=O)CCCCCCC/C=C\C/C=C\CCCCC)OC(=O)CCC(CCCCCCCC)OC(=O)NCCN(C)C (stereo not shown) [Compound 91, 2-((4-(((2-(dimethylamino)ethyl)carbamoyl)oxy)dodecanoyl)oxy)propane-1,3-diyl (9Z,9′Z,12Z,12′Z)-bis(octadeca-9,12-dienoate)]",89,–,"Num Ave Size (nm) [3, 10]: 82 nm; PDI [3, 10]: 0.01; Z-Ave Size (nm) [3, 10]: 97 nm; Encapsulation (%) [4, 10]: 98%"
6.32,82.18,0.04,106.00,98,"CCCCC/C=C\C/C=C\CCCCCCCC(=O)OCC(COC(=O)CCCCCCCC(=O)OCCCCCCCCCCC)OC(=O)CCC(CCCCCCCC)OC(=O)NCCN(C)CC (stereo not shown) [Compound 63, 1-(3-methyl-14-((((9Z,12Z)-octadeca-9,12-dienoyl)oxy)methyl)-9-octyl-7,12-dioxo-8,13-dioxa-3,6-diazapentadecan-15-yl) 9-undecyl nonanedioate]",–,83.86,–
6.8,–,–,–,–,"CCCCC/C=C\C/C=C\CCCCCCCC(=O)OCC(COC(=O)CCCCCCC/C=C\C/C=C\CCCCC)OC(=O)CC[C@@H](CCCCCC)OC(=O)NCCN1CCCC1 [Compound 90, 2-(((R)-4-(((2-(pyrrolidin-1-yl)ethyl)carbamoyl)oxy)decanoyl)oxy)propane-1,3-diyl (9Z,9′Z,12Z,12′Z)-bis(octadeca-9,12-dienoate)]",59.95,–,"Num Ave Size (nm) [3, 6]: 81 nm; PDI [3, 6]: 0.02; Z-Ave Size (nm) [3, 6]: 99 nm; Encapsulation (%) [4, 6]: 98%"
5.93,–,–,–,–,"CCCCC/C=C\C/C=C\CCCCCCCC(=O)OCC(COC(=O)CCCCCCC/C=C\C/C=C\CCCCC)OC(=O)CCC(CCCCCC)OC(=O)NCCN1CCCCC1 (stereo not shown) [Compound 78, 2-((4-(((2-(piperidin-1-yl)ethyl)carbamoyl)oxy)decanoyl)oxy)propane-1,3-diyl (9Z,9′Z,12Z,12′Z)-bis(octadeca-9,12-dienoate)]",99.8,66.5,"Num Ave Size (nm) [3, 5]: 59 nm; PDI [3, 5]: 0.13; Z-Ave Size (nm) [3, 5]: 91.00 nm; Encapsulation (%) [4, 5]: 97%"
